Format in all cases: functional
For assay [1], the system named is Staphylococcus aureus. The experiment in a line: Antimicrobial activity against Staphylococcus aureus Smith by micro broth dilution or agar based method. As to conditions: Staphylococcus aureus, Smith; read-out: MIC. A general note: Dilution methods test growth across graded concentrations, often in twofold steps.
A further assay has as its system Streptococcus pneumoniae. The experiment in a line: Antimicrobial activity against Streptococcus pneumoniae IID553 by micro broth dilution or agar based method. As to conditions: Streptococcus pneumoniae, IID553; read-out: MIC.
For the next assay, the system named is Enterococcus faecium. The experiment in a line: Antimicrobial activity against VanA expressing vancomycin-resistant Enterococcus faecium by micro broth dilution or agar based method. As to conditions: Enterococcus faecium; read-out: MIC.
A further assay deals with Escherichia coli. The experiment in a line: Antimicrobial activity against Escherichia coli ATCC 25922 by micro broth dilution or agar based method. The conditions noted are these: Escherichia coli, ATCC 25922; read-out: MIC.
Another assay deals with Acinetobacter baumannii. The experiment in a line: Antimicrobial activity against Acinetobacter baumannii IID876 by micro broth dilution or agar based method. The conditions noted are these: Acinetobacter baumannii, IID876; read-out: MIC.
The next assay has as its system Pseudomonas aeruginosa. The experiment in a line: Antimicrobial activity against Pseudomonas aeruginosa PAO1 by micro broth dilution or agar based method. As to conditions: Pseudomonas aeruginosa, PAO1; read-out: MIC.
Assay [2] deals with Staphylococcus aureus. Kind of assay: Antimicrobial activity against methicillin-resistant Staphylococcus aureus OIT971 by micro broth dilution or agar based method.

In brackets after ≈: the same amount, converted by molar mass.

As usually defined, the MIC is the lowest concentration that inhibits growth of the organism. Turning to `COc1ccc2ncc(C(F)(F)F)c(CCC34CCC(NCc5ccc6c(n5)NC(=O)CO6)(CC3)CO4)c2n1`, the MIC with Staphylococcus aureus [1] is 0.03 µg/mL (≈ 0.0552 µM); in the assay with Streptococcus pneumoniae it was 0.25 µg/mL (≈ 0.46 µM); in the assay with Enterococcus faecium, 1 µg/mL (≈ 1.84 µM); in the assay with Escherichia coli, 4 µg/mL (≈ 7.36 µM); in the assay on Acinetobacter baumannii, 2 µg/mL (≈ 3.68 µM); in the assay with Pseudomonas aeruginosa, 32 µg/mL (≈ 58.9 µM).

As for `COc1ccc2ncc(C(F)F)c(CCC34CCC(NCc5ccc6c(n5)NC(=O)CO6)(CC3)CO4)c2n1`, the minimal inhibitory concentration (MIC) was determined as 0.03 µg/mL (≈ 0.0571 µM) in the assay with Staphylococcus aureus [1]; 0.12 µg/mL (≈ 0.228 µM) in the assay with Streptococcus pneumoniae; 1 µg/mL (≈ 1.9 µM) with Enterococcus faecium; 4 µg/mL (≈ 7.61 µM) in the assay with Escherichia coli; 2 µg/mL (≈ 3.81 µM) in the assay with Acinetobacter baumannii; 16 µg/mL (≈ 30.4 µM) with Pseudomonas aeruginosa.

As for `COc1ccc2ncc(C)c(CCC34CCC(NCc5ccc6c(n5)NC(=O)CO6)(CC3)CO4)c2n1`, the MIC in the assay on Staphylococcus aureus [1] came out at 0.06 µg/mL (≈ 0.123 µM); with Streptococcus pneumoniae, 0.06 µg/mL (≈ 0.123 µM); in the assay with Enterococcus faecium, 1 µg/mL (≈ 2.04 µM); in the assay with Escherichia coli it was 4 µg/mL (≈ 8.17 µM); with Acinetobacter baumannii, 2 µg/mL (≈ 4.09 µM); with Pseudomonas aeruginosa, 16 µg/mL (≈ 32.7 µM).

`COc1ccc2ncc(CO)c(CCC34CCC(NCc5ccc6c(n5)NC(=O)CO6)(CC3)CO4)c2n1`: the minimal inhibitory concentration (MIC) in the assay with Staphylococcus aureus [1] was determined as 0.5 µg/mL (≈ 0.989 µM); in the assay on Streptococcus pneumoniae it was 0.5 µg/mL (≈ 0.989 µM); with Enterococcus faecium, 4 µg/mL (≈ 7.91 µM); in the assay with Escherichia coli, 16 µg/mL (≈ 31.6 µM); in the assay with Acinetobacter baumannii, 8 µg/mL (≈ 15.8 µM); in the assay with Pseudomonas aeruginosa, 32 µg/mL (≈ 63.3 µM).

In the case of `COc1ccc2ncc(C(N)=O)c(CCC34CCC(NCc5ccc6c(n5)NC(=O)CO6)(CC3)CO4)c2n1`, the MIC worked out at 4 µg/mL (≈ 7.71 µM) in the assay on Staphylococcus aureus [1]; 2 µg/mL (≈ 3.86 µM) with Streptococcus pneumoniae; 16 µg/mL (≈ 30.9 µM) in the assay with Enterococcus faecium; 32 µg/mL (≈ 61.7 µM) with Escherichia coli; 32 µg/mL (≈ 61.7 µM) in the assay with Acinetobacter baumannii; 32 µg/mL (≈ 61.7 µM) with Pseudomonas aeruginosa.

As to `COc1ccc2ncc(S(C)(=O)=O)c(CCC34CCC(NCc5ccc6c(n5)NC(=O)CO6)(CC3)CO4)c2n1`, the minimum inhibitory concentration (MIC) came to 0.25 µg/mL (≈ 0.452 µM) in the assay on Staphylococcus aureus [1]; 0.5 µg/mL (≈ 0.903 µM) in the assay on Streptococcus pneumoniae; 4 µg/mL (≈ 7.22 µM) with Enterococcus faecium; 16 µg/mL (≈ 28.9 µM) with Escherichia coli; 8 µg/mL (≈ 14.4 µM) in the assay on Acinetobacter baumannii; 32 µg/mL (≈ 57.8 µM) with Pseudomonas aeruginosa.

As to `O=C1COc2ccc(CNC34CCC(CCc5c(F)cnc6cc(Cl)cnc56)(CC3)OC4)nc2N1`, the minimum inhibitory concentration (MIC) with Staphylococcus aureus [1] worked out at 8 µg/mL (≈ 16.1 µM); against Staphylococcus aureus [2], 8 µg/mL (≈ 16.1 µM); with Streptococcus pneumoniae, 32 µg/mL (≈ 64.3 µM); in the assay on Enterococcus faecium, 32 µg/mL (≈ 64.3 µM); in the assay on Escherichia coli, 32 µg/mL (≈ 64.3 µM); in the assay on Acinetobacter baumannii it was 32 µg/mL (≈ 64.3 µM). Besides, the MIC in the assay with Pseudomonas aeruginosa is 32 µg/mL (≈ 64.3 µM).

With `N#Cc1ccc2ncc(C#N)c(CCC34CCC(NCc5ccc6c(n5)NC(=O)CO6)(CC3)CO4)c2n1`, the MIC amounted to 0.25 µg/mL (≈ 0.504 µM) in the assay on Staphylococcus aureus [1]; 0.125 µg/mL (≈ 0.252 µM) against Staphylococcus aureus [2]; 1 µg/mL (≈ 2.02 µM) in the assay on Streptococcus pneumoniae; 4 µg/mL (≈ 8.07 µM) in the assay with Enterococcus faecium; 8 µg/mL (≈ 16.1 µM) in the assay with Escherichia coli; 2 µg/mL (≈ 4.04 µM) in the assay with Acinetobacter baumannii. For the same compound, the minimal inhibitory concentration (MIC) with Pseudomonas aeruginosa came to 16 µg/mL (≈ 32.3 µM).

In the case of `COc1nc2c(CCC34CCC(NCc5ccc6c(n5)NC(=O)CO6)(CC3)CO4)ccnc2cc1Cl`, the minimum inhibitory concentration (MIC) was determined as 0.5 µg/mL (≈ 0.98 µM) with Staphylococcus aureus [1]; 0.25 µg/mL (≈ 0.49 µM) with Staphylococcus aureus [2]; 8 µg/mL (≈ 15.7 µM) in the assay with Streptococcus pneumoniae; 16 µg/mL (≈ 31.4 µM) in the assay with Enterococcus faecium; 32 µg/mL (≈ 62.7 µM) with Escherichia coli; 32 µg/mL (≈ 62.7 µM) in the assay on Acinetobacter baumannii. The MIC in the assay on Pseudomonas aeruginosa came to 32 µg/mL (≈ 62.7 µM).

For the compound `COc1cc2nccc(CCC34CCC(NCc5ccc6c(n5)NC(=O)CO6)(CC3)CO4)c2nc1OC`, the minimum inhibitory concentration (MIC) in the assay on Staphylococcus aureus [1] stood at 2 µg/mL (≈ 3.96 µM); in the assay on Staphylococcus aureus [2] it was 1 µg/mL (≈ 1.98 µM); in the assay with Streptococcus pneumoniae it was 8 µg/mL (≈ 15.8 µM); with Enterococcus faecium it was 8 µg/mL (≈ 15.8 µM); with Escherichia coli, 8 µg/mL (≈ 15.8 µM); in the assay with Acinetobacter baumannii, 8 µg/mL (≈ 15.8 µM). In the assay with Pseudomonas aeruginosa, the MIC was 8 µg/mL (≈ 15.8 µM).

Take `COc1nc2c(CCC34CCC(NCc5ccc6c(n5)NC(=O)CO6)(CC3)CO4)ccnc2cc1F`: the MIC in the assay on Staphylococcus aureus [1] was determined as 0.125 µg/mL (≈ 0.253 µM); with Staphylococcus aureus [2], 0.063 µg/mL (≈ 0.128 µM); with Streptococcus pneumoniae, 2 µg/mL (≈ 4.05 µM); with Enterococcus faecium, 4 µg/mL (≈ 8.1 µM); in the assay with Escherichia coli, 4 µg/mL (≈ 8.1 µM); with Acinetobacter baumannii, 2 µg/mL (≈ 4.05 µM). Also, the minimum inhibitory concentration (MIC) with Pseudomonas aeruginosa turned out to be 16 µg/mL (≈ 32.4 µM).

Take `COc1nc2c(CCC34CCC(NCc5ccc6c(n5)NC(=O)CO6)(CC3)CO4)ccnc2cc1C#N`: the minimum inhibitory concentration (MIC) is 16 µg/mL (≈ 32 µM) with Staphylococcus aureus [1]; 2 µg/mL (≈ 4 µM) with Staphylococcus aureus [2]; 64 µg/mL (≈ 128 µM) with Streptococcus pneumoniae; 64 µg/mL (≈ 128 µM) with Enterococcus faecium; 64 µg/mL (≈ 128 µM) in the assay on Escherichia coli; 64 µg/mL (≈ 128 µM) in the assay with Acinetobacter baumannii. In addition, the MIC with Pseudomonas aeruginosa turned out to be 64 µg/mL (≈ 128 µM).

For the compound `COc1cc(C)c2nccc(CCC34CCC(NCc5ccc6c(n5)NC(=O)CO6)(CC3)CO4)c2n1`, the minimal inhibitory concentration (MIC) in the assay with Staphylococcus aureus [1] was 0.125 µg/mL (≈ 0.255 µM); against Staphylococcus aureus [2] it was 0.063 µg/mL (≈ 0.129 µM); in the assay on Streptococcus pneumoniae, 1 µg/mL (≈ 2.04 µM); in the assay with Enterococcus faecium, 8 µg/mL (≈ 16.3 µM); in the assay on Escherichia coli, 8 µg/mL (≈ 16.3 µM); in the assay with Acinetobacter baumannii it was 8 µg/mL (≈ 16.3 µM). Further, the minimum inhibitory concentration (MIC) with Pseudomonas aeruginosa is 32 µg/mL (≈ 65.4 µM).
